# Laboratory results as given in US20240277706A1, “METHODS AND COMPOSTITIONS FOR TARGETING PD-L1” (Aligos Therapeutics, Inc., priority 2023, published 2024).
# Legend:
# PD-1/PD-L1 interaction = biological target: T1, PD-1/PD-L1 interaction (Homo sapiens, UniProt Q9NZQ7); assay: PD-1/PD-L1 NFAT Reporter Assay (Jurkat/CHO co-culture); format: cell-based; conditions: Jurkat cells overexpressing PD-1 with NFAT luciferase, co-culture with PD-L1 expressing CHO cells, 6 hrs at 37° C.
# T1 construct: expressed in transfected cells; Jurkat cells (PD-1 and NFAT-luciferase)
# T1 sequence (Q9NZQ7 19-290): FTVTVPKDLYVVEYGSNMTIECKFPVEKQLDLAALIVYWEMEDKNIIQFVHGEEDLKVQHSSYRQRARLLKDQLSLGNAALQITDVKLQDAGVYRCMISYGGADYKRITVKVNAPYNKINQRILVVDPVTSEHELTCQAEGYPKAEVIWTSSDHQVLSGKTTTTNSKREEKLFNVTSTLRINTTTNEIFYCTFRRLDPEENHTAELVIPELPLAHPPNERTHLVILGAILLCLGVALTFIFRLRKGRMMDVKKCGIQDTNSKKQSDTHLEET
# Protocol: Blocking the PD-1/PD-L1 interaction will release the inhibitory signal and results in TCR signaling and NFAT-mediated luciferase activity.
# CHO cells expressing surface-bound anti-CD3 antibodies and PD-L1 were first seeded overnight and treated with the compounds. Jurkat cells overexpressing PD-1 and a luciferase construct under NFAT promoter were then immediately seeded on the monolayer of CHO cells. The co-culture was then incubated for 6 hrs at 37° C. Luciferase activity was assessed by adding the ONE-Glo reagent and measuring luminescence with a plate reader. EC50 values were determined from the fit of the dose-response curves.
# PD-1/PD-L1 = PD-1/PD-L1 (Homo sapiens, UniProt Q9NZQ7); assay: PDL1/PD1 Binding Assay; conditions: PDL1-6×His 0.3 nM, PD1-Fc-Avi-Biotin 2.5 nM, acceptor/donor beads, Envision reader; read-out: PD-1/PD-L1 PPI IC50
# Chain of PD-1/PD-L1 (Q9NZQ7 19-238 limits assumed): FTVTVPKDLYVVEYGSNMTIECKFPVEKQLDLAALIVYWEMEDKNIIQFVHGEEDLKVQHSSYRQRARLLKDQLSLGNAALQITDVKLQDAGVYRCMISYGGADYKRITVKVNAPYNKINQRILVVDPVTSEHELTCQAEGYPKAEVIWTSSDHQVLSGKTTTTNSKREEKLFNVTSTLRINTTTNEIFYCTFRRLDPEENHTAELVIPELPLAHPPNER
# Protocol: Compounds to be tested were serially diluted in DMSO, and further diluted in assay buffer (25 mM Hepes pH 7.4, 150 mM NaCl, 0.005% Tween 20, BSA 0.01%). Diluted compounds were added to the wells with final concentration of DMSO at 1%. PDL1-6×His protein was added to the wells, mixed well with compound. The plates were incubated for 30 min at room temperature. PD1-Fc-Avi-Biotin protein was added to the wells. Final concentration of PDL1 and PD1 protein is 0.3 nM and 2.5 nM, respectively. After a binding time of 30 min at room temperature, Anti-6×His Acceptor beads (final concentration 20 ug/ml) were added to the wells, and the incubation continued for 1 h. Streptavidin Donor beads (final concentration 20 ug/mL) were added at reduced light. The plates were sealed with foil and incubated in the dark for additional 1 h or overnight before reading on an Envision reader. The IC50 values were determined by fitting the curves using a four-parameter equation in Graphpad Prism 8.
SMILES,EC50 (PD-1/PD-L1 interaction) [nM],IC50 (PD-1/PD-L1) [nM],Jurkat NFAT EC50 (PD-1/PD-L1 interaction)
COc1nc(-c2cccc(-c3cccc(NC(=O)c4ccnn(C)c4=O)c3Cl)c2Cl)ccc1CN1CCC(c2nnn[nH]2)CC1 [Compound C-95],10 to 100,≤ 10,
COc1nc(-c2cccc(-c3cccc(NC(=O)c4ccnn(C)c4=O)c3C)c2Cl)cnc1CN1CCC(C(=O)O)CC1 [Compound C-105],10 to 100,≤ 10,
CCOC(=O)C1CCN(Cc2ccc(-c3cccc(-c4cccc(NC(=O)c5ccnn(C)c5=O)c4Cl)c3Cl)nc2OC)CC1 [Compound C-51],,≤ 10,n.r
COc1nc(-c2cccc(-c3cccc(NC(=O)c4ccnn(C)c4=O)c3C)c2Cl)ccc1CN1CCC(C(=O)O)CC1 [Compound C-103],10 to 100,≤ 10,
COc1nc(-c2cccc(-c3cccc(NC(=O)c4ccnn(C)c4=O)c3Cl)c2Cl)ccc1CN1CC2CC(C1)C2C(=O)O (stereo not drawn) [Compound C-102],10 to 100,≤ 10,
COc1nc(-c2cccc(-c3cccc(NC(=O)c4ccnn(C)c4=O)c3Cl)c2Cl)ccc1CN1CCC(OC)(C(=O)O)CC1 [Compound C-98],10 to 100,≤ 10,
COc1nc(-c2cccc(-c3cccc(NC(=O)c4ccnn(C)c4=O)c3Cl)c2Cl)ccc1CN1CC(c2nnn[nH]2)C1 [Compound C-26],10 to 100,≤ 10,
COc1nc(-c2cccc(-c3cccc(NC(=O)c4ccnn(C)c4=O)c3Cl)c2Cl)ccc1CN1CC2CCC(C1)C2C(=O)O (stereo not drawn) [Compound C-99],100 to 1000,,
COc1nc(-c2cccc(-c3cccc(NC(=O)c4ccnn(C)c4=O)c3Cl)c2Cl)cnc1CN1CCC(C(=O)O)CC1 [Compound C-104],10 to 100,≤ 10,
COc1nc(-c2cccc(-c3cccc(NC(=O)c4ccnn(C)c4=O)c3Cl)c2Cl)ccc1CN1CCC(O)(C(=O)O)CC1 [Compound C-106],10 to 100,,
COc1nc(-c2cccc(-c3cccc(NC(=O)c4ccnn(C)c4=O)c3Cl)c2Cl)ccc1CN1CCC(C(=O)O)CC1 [Compound C-43],10 to 100,≤ 10,
CCOC(=O)C1CCN(Cc2ncc(-c3cccc(-c4cccc(NC(=O)c5ccnn(C)c5=O)c4Cl)c3Cl)nc2OC)CC1 [Compound C-107],10 to 100,≤ 10,
COc1nc(-c2cccc(-c3cccc(NC(=O)c4ccnn(C)c4=O)c3Cl)c2Cl)ccc1CN1C[C@@H]2[C@H](C1)[C@H]2C(=O)O [Compound C-100],10 to 100,≤ 10,
COc1nc(-c2cccc(-c3cccc(NC(=O)c4ccnn(C)c4=O)c3Cl)c2Cl)ccc1CN1CCC(C)(C(=O)O)CC1 [Compound C-96],10 to 100,≤ 10,
COc1nc(-c2cccc(-c3cccc(NC(=O)c4ccnn(C)c4=O)c3Cl)c2Cl)ccc1CN1CCC2(C(=O)O)CC2C1 (stereo not drawn) [Compound C-101],10 to 100,≤ 10,
COc1nc(-c2cccc(-c3cccc(NC(=O)c4ccnn(C)c4=O)c3Cl)c2Cl)ccc1CN1CCC(F)(C(=O)O)CC1 [Compound C-97],10 to 100,≤ 10,
